Data reported in article PMC4058747, “Structural Mechanisms Determining Inhibition of the Collagen Receptor DDR1 by Selective and Multi-Targeted Type II Kinase Inhibitors” (Journal of Molecular Biology, 2014).
Read-outs that look alike come from different tables or passages of the source.

Assays:
[1] = biological target: T1, DDR2 (Homo sapiens, UniProt Q16832); assay: LanthaScreen kinase activity assay (Invitrogen), DDR2; type: biochemical; conditions: read-out: Enzymatic IC50 values DDR2
T1 construct: purchased Invitrogen
T1 sequence (Q16832 22-855): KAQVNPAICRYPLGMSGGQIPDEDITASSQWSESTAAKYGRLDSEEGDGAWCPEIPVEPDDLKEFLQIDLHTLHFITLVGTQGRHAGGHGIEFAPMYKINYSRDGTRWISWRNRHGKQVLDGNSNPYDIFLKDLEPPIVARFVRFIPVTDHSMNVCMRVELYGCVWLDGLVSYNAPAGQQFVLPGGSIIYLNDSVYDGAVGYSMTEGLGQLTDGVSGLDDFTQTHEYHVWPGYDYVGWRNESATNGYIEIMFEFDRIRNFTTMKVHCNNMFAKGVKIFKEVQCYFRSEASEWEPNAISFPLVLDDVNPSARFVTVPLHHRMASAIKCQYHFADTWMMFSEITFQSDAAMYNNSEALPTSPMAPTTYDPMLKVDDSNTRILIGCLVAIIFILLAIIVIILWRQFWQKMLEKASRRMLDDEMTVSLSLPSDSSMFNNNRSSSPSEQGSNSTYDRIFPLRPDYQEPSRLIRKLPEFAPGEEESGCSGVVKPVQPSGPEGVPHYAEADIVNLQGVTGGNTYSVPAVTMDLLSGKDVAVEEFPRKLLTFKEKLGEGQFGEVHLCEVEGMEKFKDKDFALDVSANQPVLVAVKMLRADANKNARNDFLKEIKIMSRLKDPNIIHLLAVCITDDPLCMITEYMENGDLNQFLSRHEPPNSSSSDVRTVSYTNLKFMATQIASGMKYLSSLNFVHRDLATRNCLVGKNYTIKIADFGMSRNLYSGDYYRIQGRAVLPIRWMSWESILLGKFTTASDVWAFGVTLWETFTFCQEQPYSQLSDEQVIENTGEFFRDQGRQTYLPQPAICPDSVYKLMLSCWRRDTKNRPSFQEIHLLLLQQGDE
Description: (§1) IC50 values were determined by Invitrogen using a LanthaScreen kinase activity assay.
(§2) Figure S2. Inhibition of DDR1 and DDR2. (a) IC50 values for DDR1 inhibition determined by using a LanthaScreen kinase activity assay (Invitrogen). (b) IC50 values for DDR2 inhibition determined similarly.

[2] = biological target: T2, DDR1 (Homo sapiens, UniProt Q08345); assay: LanthaScreen kinase activity assay (Invitrogen), DDR1; type: biochemical; conditions: for IC50: LanthaScreen kinase activity assay, read-out: Enzymatic IC50 values DDR1; for activity of analogs against DDR1 kinase activity (in words): removal of the trifluoromethyl group
T2 construct: purchased Invitrogen
T2 sequence (Q08345 19-913): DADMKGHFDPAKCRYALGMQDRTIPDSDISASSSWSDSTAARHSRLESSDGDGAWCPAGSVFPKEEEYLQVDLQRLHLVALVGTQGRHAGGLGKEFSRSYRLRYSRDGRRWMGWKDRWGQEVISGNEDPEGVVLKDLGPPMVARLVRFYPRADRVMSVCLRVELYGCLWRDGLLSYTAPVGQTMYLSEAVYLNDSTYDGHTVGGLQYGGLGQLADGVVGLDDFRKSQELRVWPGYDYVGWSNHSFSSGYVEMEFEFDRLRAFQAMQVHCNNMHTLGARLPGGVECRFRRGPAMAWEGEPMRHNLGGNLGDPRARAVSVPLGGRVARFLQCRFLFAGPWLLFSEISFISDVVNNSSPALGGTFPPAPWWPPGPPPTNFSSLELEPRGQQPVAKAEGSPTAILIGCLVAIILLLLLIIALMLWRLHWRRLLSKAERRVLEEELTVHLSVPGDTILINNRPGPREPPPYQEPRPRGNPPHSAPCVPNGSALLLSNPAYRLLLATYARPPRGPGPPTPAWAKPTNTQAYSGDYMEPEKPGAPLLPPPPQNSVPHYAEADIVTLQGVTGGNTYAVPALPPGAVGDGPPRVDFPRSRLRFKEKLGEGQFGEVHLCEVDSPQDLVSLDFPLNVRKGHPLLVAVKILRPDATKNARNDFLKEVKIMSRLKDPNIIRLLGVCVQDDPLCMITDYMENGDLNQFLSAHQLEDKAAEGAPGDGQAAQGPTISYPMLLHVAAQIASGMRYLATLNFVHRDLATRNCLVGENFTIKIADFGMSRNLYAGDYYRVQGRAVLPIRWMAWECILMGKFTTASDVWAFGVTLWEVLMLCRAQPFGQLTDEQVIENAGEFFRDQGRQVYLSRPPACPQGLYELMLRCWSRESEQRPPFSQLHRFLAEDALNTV
Description: as §1, §2

[3] = biological target: T2, DDR1; design: method as in PMID 23275061; conditions: cited from earlier work
[4] = biological target: T2, DDR1; design: method as in PMID 23275061; conditions: cited from earlier work; remark: listed apart in the source
[5] = tested on: ABL; design: method as in PMID 23899692; conditions: quoted for selectivity relative to DDR1; cited from earlier work

Compound | IC50 [1] [µM] | IC50 [2] [µM] | EC50 [3] [µM] | IC50 [4] [µM] | activity of analogs against DDR1 kinase activity (in words) [2] | IC50 [5] [µM]
Cc1ccc(NC(=O)c2cc(N3CCN(CCO)CC3)cc(C(F)(F)F)c2)cc1Oc1ccc2c(c1)CC(=O)N2 [Compound 3] | 0.546 | 0.182 |  |  |  | 
Cc1ccc(C(=O)Nc2ccc(Oc3cc4cnn(C)c4cc3-c3cn[nH]c3)c(F)c2)c(=O)n1-c1ccc(F)cc1 [LY2801653] |  |  | < 0.001 | < 0.001 |  | 
CCN1CCN(Cc2ccc(F)c(C(=O)Nc3ccc(C)c(Oc4ccc5c(c4)CC(=O)N5)c3)c2)CC1 [Compound 7] | > 10 | 8.94 |  |  | inactive | 
CCN1CCN(Cc2ccc(NC(=O)Nc3ccc(C)c(Oc4ccc5c(c4)CC(=O)N5)c3)cc2C(F)(F)F)CC1 [Compound 1] | 0.785 | 0.262 |  |  |  | 
Cc1ccc(NC(=O)c2ccc(OC3CCN(C)CC3)c(C(F)(F)F)c2)cc1Oc1ccc2c(c1)CC(=O)N2 [Compound 2] | 0.338 | 0.115 |  |  |  | 
CCN1CCN(Cc2ccc(C(=O)Nc3ccc(C)c(Oc4ccc5c(c4)CC(=O)N5)c3)cc2C(F)(F)F)CC1 [DDR1-IN-1] | 0.413 |  |  |  |  | 1.8
CCN1CCN(Cc2ccc(C(=O)Nc3ccc(C)c(Oc4ccc5c(c4)CC(=O)N5)c3)c(F)c2)CC1 [Compound 6] | > 10 | > 10 |  |  | inactive | 
CCN1CCN(c2cc(C(=O)Nc3ccc(C)c(Oc4ccc5c(c4)CC(=O)N5)c3)cc(C(F)(F)F)c2)CC1 [Compound 4] | 0.385 | 0.15 |  |  |  | 
Cc1ccc(NC(=O)c2cccc(C(C)(C)C#N)c2)cc1Oc1ccc2c(c1)CC(=O)N2 [Compound 5] | 1.02 | 0.174 |  |  |  | 
